Target: T1, mouse GHR (Mus musculus, UniProt P16882)
T1 construct: the mouse L fibroblasts express high levels of mouse GHR; host or cells: mouse L fibroblasts
T1 sequence (P16882 25-650): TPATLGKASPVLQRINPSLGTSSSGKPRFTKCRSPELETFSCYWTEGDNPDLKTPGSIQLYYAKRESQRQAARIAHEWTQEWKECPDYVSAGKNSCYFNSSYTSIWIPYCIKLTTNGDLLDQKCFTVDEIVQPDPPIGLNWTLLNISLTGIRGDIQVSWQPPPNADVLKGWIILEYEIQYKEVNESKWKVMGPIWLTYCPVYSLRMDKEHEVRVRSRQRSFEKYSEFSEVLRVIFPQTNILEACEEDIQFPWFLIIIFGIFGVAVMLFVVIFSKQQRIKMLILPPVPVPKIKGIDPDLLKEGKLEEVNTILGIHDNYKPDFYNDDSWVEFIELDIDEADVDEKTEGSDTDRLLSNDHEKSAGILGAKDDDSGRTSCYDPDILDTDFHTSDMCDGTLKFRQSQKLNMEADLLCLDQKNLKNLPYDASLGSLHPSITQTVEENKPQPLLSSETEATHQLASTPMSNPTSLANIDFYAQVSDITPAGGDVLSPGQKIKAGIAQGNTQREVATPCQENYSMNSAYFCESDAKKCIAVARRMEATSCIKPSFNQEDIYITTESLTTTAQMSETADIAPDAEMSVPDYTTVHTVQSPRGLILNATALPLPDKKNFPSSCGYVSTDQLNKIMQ
Experiment: hGH-mediated pSTAT5 in L (mouse fibroblast) cells, Western blot
Assay type: cell-based
Details: 200 nM S1H with 2.5 nM hGH, 20 min, Western blot densitometry, n = 3
Experimental: SK-MEL-28, MALME-3M, and T84 cells were grown and maintained in Eagle's Minimal Essential Medium. IM9 and L cells were grown in RPMI-1640 media and Dulbecco's modified Eagle's medium, respectively. All growth media was supplemented with 10% fetal bovine serum and 1× antibiotic-antimycotic […] solution. Cells were grown at 37 °C under a 5% CO2 atmosphere in a humidified incubator, and growth media was replaced every 48 h during incubation. No hGH was present in or added to the growth media unless specifically indicated. […]
Following treatment, the cells were harvested at the indicated time points, and the total protein was extracted. […] Sample protein concentration was quantified using a Bradford assay with bovine serum albumin as the protein standard. Absorbance at 595 nm was measured using a Spectramax 250 multimode plate reader (Molecular Devices) and processed using SoftmaxPro v4.7.1 software.
Cytosolic fractions from treated cells were thawed on ice, and 80 μg protein was loaded onto polyacrylamide gels for separation by SDS-PAGE. […] Chemiluminescence signals were detected using a GelDoc (BioRad) fluorescence imager. […] Percent inhibition was then measured by subtracting the pSTAT5 band intensity in each lane from the pSTAT5 band intensity of hGH-treated samples. […]

CC[C@H](C)[C@H](NC(=O)[C@H](Cc1ccc(O)cc1)NC(C)=O)C(=O)N1CCC[C@H]1C(=O)N[C@@H](CCCCN)C(=O)N[C@@H](CCC(=O)O)C(=O)N[C@@H](CCC(N)=O)C(=O)N[C@@H](CCCCN)C(=O)N[C@@H](Cc1ccc(O)cc1)C(=O)N[C@@H](CO)C(=O)N[C@@H](Cc1ccccc1)C(=O)N[C@@H](CC(C)C)C(=O)N[C@@H](CCC(N)=O)C(=O)N[C@@H](CC(N)=O)C(=O)N1CCC[C@H]1C(=O)N[C@@H](CCC(N)=O)C(=O)N[C@H](C(N)=O)[C@@H](C)O [S1H]
suppression of hGH-mediated pSTAT5: 36%

— PMC8086144, “A novel peptide antagonist of the human growth hormone receptor” (The Journal of Biological Chemistry, 2021)
